Experimental data taken from PMC11768059, “Guanidines Conjugated with Cell-Penetrating Peptides: A New Approach for the Development of Antileishmanial Molecules” (Molecules, 2025).
Values joined by “and” are separate entries in the source; they are usually repeats but may differ in a detail not shown here. Equal entries are not always repeated. Residues, ends and D or L forms follow the SMILES beside them. *: point of attachment. X1 = O=C(/N=C(/NCc1ccc(C(=O)*)cc1)Nc1ccc(Br)cc1)c1ccccc1; code Z = not defined here

What was measured:
[1] = cytotoxic activity on peritoneal macrophages; type: cell-based, Swiss mice; conditions: Swiss, mouse
Experimental: For the anti-promastigote assays, L. infantum and L. amazonensis cultures in the exponential growth phase were transferred to 96-well plates at a final concentration of 1 × 10^7 promastigotes mL^−1. […] After 72 h, viable promastigotes were determined using the MTT method.
(§1) Anti-promastigote and anti-amastigote assays, the infection index (percentage of infected cells * number of intracellular parasites/numbers of infected cells), and their cytotoxic activity were conducted as previously described.

[2] = tested on: L. infantum promastigotes; assay: microbe, parasite or virus in culture; conditions: for IC50: read-out: Promastigote IC50 L. infantum in active serum
Description: (§2) Several strategies were employed to increase the stability of peptides, including the incorporation of non-natural amino acids, modifications of the N- and/or C-terminal, cyclization, the use of non-peptide structures (peptidomimetics), and multimerization.

[3] = tested on: L. amazonensis promastigotes; assay: microbe, parasite or virus in culture; conditions: for IC50: read-out: Promastigote IC50 L. amazonensis in active serum
Description: as §2

[4] = tested on: L. infantum promastigotes; assay: anti-promastigote assay (MTT) against L. infantum; type: cell-based, Leishmania infantum; conditions: 72 h
Experimental: (§3) L. amazonensis promastigotes (MPRO/BR/1972/M1841-LV-79) were grown in LIT culture medium, while L. infantum promastigotes (MNYC/BZ/62/M379) were cultivated in 199 culture medium (Sigma-Aldrich, St. Louis, MO, USA) supplemented with 10% heat-inactivated fetal bovine serum (FBS; Gibco/Invitrogen) and in 10% urine, at 28 °C, until reaching the mid-log phase of growth. Macrophages were sourced from the peritoneal cavity of Swiss mice, using the methodology outlined by de Almeida et al. 2017 [60]. For the anti-promastigote assays, L. infantum and L. amazonensis cultures in the exponential growth phase were transferred to 96-well plates at a final concentration of 1 × 10^7 promastigotes mL^−1. Subsequently, the tested compounds were added at concentrations ranging from 1.28 to 100 µmol L^−1 to assess their anti-promastigote activity. After 72 h, viable promastigotes were determined using the MTT method.
as §1

[5] = tested on: L. amazonensis intracellular amastigotes; type: cell-based, Leishmania amazonensis
Experimental: as §1

[6] = molecular target: T1, cysteine protease LmCPB2.8∆CTE (CPB) (Leishmania mexicana, UniProt P36400); assay: cysteine protease (CPB) enzyme inhibition assay; type: biochemical, Leishmania major; conditions: for inhibition at 20 µM: read-out: CPB Inhibitory Activity 20 μM, 20 μM
T1 sequence (P36400 126-343): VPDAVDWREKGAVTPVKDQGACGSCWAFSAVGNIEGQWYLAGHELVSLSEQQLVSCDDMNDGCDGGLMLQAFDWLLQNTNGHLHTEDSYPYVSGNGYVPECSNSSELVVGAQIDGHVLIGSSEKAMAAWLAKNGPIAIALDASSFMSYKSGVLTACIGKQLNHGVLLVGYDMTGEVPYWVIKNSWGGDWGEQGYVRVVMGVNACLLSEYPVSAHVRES
Experimental: CPB inhibition experiments were performed as described previously by Moreira et al. 2022 [13]. The results were expressed as mean ± standard deviation of two independent replicates.

[7] = tested on: L. amazonensis promastigotes; assay: anti-promastigote assay (MTT) against L. amazonensis; type: cell-based, Leishmania amazonensis; conditions: 72 h
Experimental: as §3, §1

[8] = tested on: L. infantum intracellular amastigotes; type: cell-based, Leishmania infantum
Experimental: as §1

[9] = eukaryotic membrane mimetic POPC/cholesterol, 50 μM
Experimental: As illustrated in Figure 5 and Figure 6, the analyte in question (peptide, bioconjugate, or guanidine) was added within 120 s, and after an interval of 360 s, the behavior of the membrane mimetic was reanalyzed. After this time, 10% triton was added so that the vesicles could completely release the carboxyfluorescein.
Large unilamellar vesicles (LUVs) composed of POPC (1-palmitoyl-2-oleoyl-sn-glycero-3-phosphatidylcholine) and cholesterol (Chol) (4:1) or POPC, POPS (1-palmitoyl-2-oleoyl-sn-glycero-3-serine), and ergosterol (Erg) (8:1:1) were prepared according to the methods described by Lorenzón et al. 2014 [62].

[10] = molecular target: T1, cysteine protease LmCPB2.8∆CTE (CPB); conditions: irreversible inhibitor ref 13; cited from earlier work
[11] = molecular target: cathepsin B; design: method as in PMID 12574338; conditions: cited from earlier work
[12] = peritoneal macrophages, Table 2 (L. infantum series)
[13] = peritoneal macrophages, Table 1 (L. amazonensis series)
[14] = culture medium with active fetal bovine serum

O=C(O)c1ccc(CN/C(=N/C(=O)c2ccccc2)Nc2ccc(Br)cc2)cc1 [GVL1, (Z)-4-((2-benzoyl-3-(4-bromophenyl)guanidino)methyl) benzoic acid]
CC50 ([1]; Table 1 (L. amazonensis series)): > 1000 µM | CC50 [1, 12]: > 2000 µM | IC50 ([2]; Leishmania infantum): 50 ± 1.2 µM | IC50 ([3]; Leishmania amazonensis): 65 ± 2.4 µM | IC50 ([4]; Leishmania infantum): 50.8 ± 2.2 µM

C[C@@H]1[C@H](O)[C@@H](C)/C=C/C=C/C=C/C=C/C=C/C=C/C=C/[C@H](O[C@@H]2O[C@H](C)[C@@H](O)[C@H](N)[C@@H]2O)C[C@@H]2O[C@](O)(C[C@@H](O)C[C@@H](O)[C@H](O)CC[C@@H](O)C[C@@H](O)CC(=O)O[C@H]1C)C[C@H](O)[C@H]2C(=O)O [Amp B, Amphotericin B, reference compound]
CC50 [1, 13]: 99.8 ± 3.7 µM | IC50 ([2]; Leishmania infantum): 0.3 ± 0.1 µM | IC50 ([3]; Leishmania amazonensis): 0.5 ± 0.1 µM

N=C(N)NCCC[C@H](NC(=O)[C@H](CCCNC(=N)N)NC(=O)[C@H](CCC(N)=O)NC(=O)[C@H](CCCNC(=N)N)NC(=O)[C@H](CCCNC(=N)N)NC(=O)[C@H](CCCCN)NC(=O)[C@H](CCCCN)NC(=O)[C@H](CCCNC(=N)N)NC(=O)CNC(=O)[C@@H](N)Cc1ccc(O)cc1)C(=O)O [TAT, reference compound] (H-YGRKKRRQRR-OH; N-terminus assumed)
Amastigote IC50 [5]: no activity | inhibition at 20 µM [6]: 9.42 ± 0.01% | CC50 [1, 13]: > 1000 µM | CC50 [1, 12]: > 2000 µM | Promastigote IC50 [7]: no activity | Amastigote IC50 [8]: no leishmanicidal activity | Promastigote IC50 L. infantum in active serum [2, 14]: did not display anti-promastigote activity | Promastigote IC50 L. amazonensis in active serum [3, 14]: did not display anti-promastigote activity | Promastigote IC50 [4]: no leishmanicidal activity

N=C(N)NCCC[C@H](NC(=O)[C@H](CCCNC(=N)N)NC(=O)[C@H](CCC(N)=O)NC(=O)[C@H](CCCNC(=N)N)NC(=O)[C@H](CCCNC(=N)N)NC(=O)[C@H](CCCCN)NC(=O)[C@H](CCCCN)NC(=O)[C@H](CCCNC(=N)N)NC(=O)CNC(=O)[C@H](Cc1ccc(O)cc1)NC(=O)c1ccc(CN/C(=N/C(=O)c2ccccc2)Nc2ccc(Br)cc2)cc1)C(=O)O [GVL1-TAT] (X1-YGRKKRRQRR-OH)
permeabilization of vesicles (carboxyfluorescein release) [9]: no damage was observed in the vesicles | IC50 ([5]; read-out: Amastigote IC50): 0.8 ± 0.06 µM | IC50 [6]: 3.78 ± 0.1 µM | inhibition at 20 µM [6]: ~92% | CC50 [1, 13]: > 1000 µM | CC50 [1, 12]: > 2000 µM | IC50 [7]: 5.3 µM and 5.32 µM | IC50 ([8]; read-out: Amastigote IC50): 3.8 ± 0.3 µM | IC50 [2, 14]: 1.2 ± 0.3 µM | IC50 [3, 14]: 2.6 ± 0.8 µM | IC50 [4]: 1.2 ± 0.3 µM

CC(C)C[C@H](NC(=O)[C@H]1O[C@@H]1C(=O)O)C(=O)NCCCCN=C(N)N (relative stereo) [Compound E64, L-trans-epoxysuccinyl-leucylamido-(4-guanidino)butane]
inhibition of Leishmania CPB (potency range) [10]: nanomolar range

Z-Arg-Leu-Val-Gly-Ile-Val-Ome ({code Z}-RLVGIV-OMe; reading uncertain; also: printed as Z-Arg-Leu-Val-Gly-Ile-Val-Ome)
Ki [11]: 0.088 nM
